Experimental data from ChEMBL document CHEMBL1833909, “Synthesis and structure-activity relationships of 4,5-fused pyridazinones as histamine H₃ receptor antagonists” (Bioorg Med Chem Lett, 2011).
pKi: −log10 of the molar value.

molecular target: Histamine H3 receptor (Rattus norvegicus, UniProt Q9QYN8); assay: Displacement of [3H]-NAMH from rat histamine H3 receptor expressed in CHO cells; assay type: cell-based
Sequence (Q9QYN8 whole entry): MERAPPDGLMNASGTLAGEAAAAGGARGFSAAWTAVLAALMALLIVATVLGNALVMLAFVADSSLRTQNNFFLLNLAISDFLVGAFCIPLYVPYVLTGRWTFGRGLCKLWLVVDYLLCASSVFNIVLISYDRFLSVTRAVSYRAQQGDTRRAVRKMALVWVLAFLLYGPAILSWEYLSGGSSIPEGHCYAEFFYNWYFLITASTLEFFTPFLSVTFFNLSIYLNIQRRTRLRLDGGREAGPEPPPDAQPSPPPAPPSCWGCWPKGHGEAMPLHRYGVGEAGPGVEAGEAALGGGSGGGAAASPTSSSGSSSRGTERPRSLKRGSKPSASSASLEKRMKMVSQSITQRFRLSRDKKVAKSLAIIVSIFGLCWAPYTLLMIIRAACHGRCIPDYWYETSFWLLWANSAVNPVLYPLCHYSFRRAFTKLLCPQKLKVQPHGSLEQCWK

| Structure (SMILES) | pKi |
| --- | --- |
| O=c1c2ccsc2c(-c2ccc(OCCCN3CCCCC3)cc2)nn1Cc1ccc(Cl)cc1 | 6.84 |
| CC(C)n1nc(-c2ccc(OCCCN3CCCC3)cc2)c2sccc2c1=O | 8.15 |
| CCN(CC)CCCOc1ccc(-c2nn(C(C)C)c(=O)c3ccsc23)cc1 | 6.78 |
| COC[C@H]1CCCN1CCCOc1ccc(-c2nn(C(C)C)c(=O)c3ccsc23)cc1 | < 5.52 |
| CC(C)n1nc(-c2ccc(OCCCN3CCCCC3)cc2)c2sccc2c1=O | 7.72 |
| CCCn1nc(-c2ccc(OCCCN3CCC[C@H]3C)cc2)c2sccc2c1=O | 7.92 |
| C[C@@H]1CCCN1CCCOc1ccc(-c2nn(Cc3ccc(Cl)cc3)c(=O)c3ccsc23)cc1 | 7.92 |

The remaining compounds from weak to strong by pKi, led by results:

| pKi | Structure (SMILES) |
| --- | --- |
| 5.93 | COC[C@@H]1CCCN1CCCOc1ccc(-c2nn(C(C)C)c(=O)c3ccsc23)cc1 |
| 7.24 | CCCn1nc(-c2ccc(OCCCN3CCC(C)CC3)cc2)c2sccc2c1=O |
| 7.64 | O=c1c2ccccc2c(-c2ccc(OCCCN3CCCCC3)cc2)nn1Cc1ccc(Cl)cc1 |
| 8.42 | C[C@@H]1CCCN1CCCOc1ccc(-c2nn(C)c(=O)c3ccccc23)cc1 |
| 8.74 | Cn1nc(-c2ccc(OCCCN3CCCCCC3)cc2)c2ccccc2c1=O |

molecular target: Histamine H3 receptor (Homo sapiens, UniProt Q9Y5N1); assay: biochemical
Sequence (Q9Y5N1 whole entry): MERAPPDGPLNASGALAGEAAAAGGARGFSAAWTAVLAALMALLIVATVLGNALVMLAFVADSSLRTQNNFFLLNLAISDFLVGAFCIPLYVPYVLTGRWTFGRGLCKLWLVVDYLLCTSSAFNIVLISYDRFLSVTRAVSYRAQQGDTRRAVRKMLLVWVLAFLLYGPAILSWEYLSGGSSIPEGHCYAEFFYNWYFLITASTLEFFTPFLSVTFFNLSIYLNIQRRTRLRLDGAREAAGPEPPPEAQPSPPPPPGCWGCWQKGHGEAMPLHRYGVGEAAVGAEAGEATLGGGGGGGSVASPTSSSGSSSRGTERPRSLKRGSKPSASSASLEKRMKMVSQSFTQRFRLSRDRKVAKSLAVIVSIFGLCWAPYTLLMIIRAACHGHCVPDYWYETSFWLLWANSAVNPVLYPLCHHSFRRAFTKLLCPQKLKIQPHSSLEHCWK

| Structure (SMILES) | pKi |
| --- | --- |
| O=c1c2ccsc2c(-c2ccc(OCCCN3CCCCC3)cc2)nn1Cc1ccc(Cl)cc1 | 7.32 |
| CC(C)n1nc(-c2ccc(OCCCN3CCCC3)cc2)c2sccc2c1=O | 8.40 |
| CCN(CC)CCCOc1ccc(-c2nn(C(C)C)c(=O)c3ccsc23)cc1 | 7.64 |
| COC[C@H]1CCCN1CCCOc1ccc(-c2nn(C(C)C)c(=O)c3ccsc23)cc1 | 5.95 |
| CC(C)n1nc(-c2ccc(OCCCN3CCCCC3)cc2)c2sccc2c1=O | 8.72 |
| CCCn1nc(-c2ccc(OCCCN3CCC[C@H]3C)cc2)c2sccc2c1=O | 8.82 |
| C[C@@H]1CCCN1CCCOc1ccc(-c2nn(Cc3ccc(Cl)cc3)c(=O)c3ccsc23)cc1 | 8.62 |

Further lines, results first:

| pKi | Structure (SMILES) |
| --- | --- |
| 7.30 | COC[C@@H]1CCCN1CCCOc1ccc(-c2nn(C(C)C)c(=O)c3ccsc23)cc1 |
| 7.64 | CCCn1nc(-c2ccc(OCCCN3CCC(C)CC3)cc2)c2sccc2c1=O |
| 7.96 | O=c1c2ccccc2c(-c2ccc(OCCCN3CCCCC3)cc2)nn1Cc1ccc(Cl)cc1 |
| 9.10 | C[C@@H]1CCCN1CCCOc1ccc(-c2nn(C)c(=O)c3ccccc23)cc1 |
| 8.85 | Cn1nc(-c2ccc(OCCCN3CCCCCC3)cc2)c2ccccc2c1=O |
